Reference: patent publication EP1208096B1, “SUBSTITUTED PYRIDAZINES AND FUSED PYRIDAZINES WITH ANGIOGENESIS INHIBITING ACTIVITY” (Bayer Corporation, priority 1999, dated 2001)
Counter-ions that a name gives are not always drawn.

Tests used:
[1] = molecular target: T1, NIH3T3 cells expressing the full length KDR receptor (Homo sapiens, UniProt P35968); experiment: Cell mechanistic assay - Inhibition of 3T3 KDR phosphorylation; format: cell-based; conditions: VEGF (30 ng / ml) for 10 minutes after 30 minutes with compound; KDR phosphotyrosine ELISA
T1 construct: NIH3T3 cells expressing the full length KDR receptor; expressed in transfected cells; host or cells: NIH3T3 cells (G418 selection)
T1 sequence (P35968 20-1356): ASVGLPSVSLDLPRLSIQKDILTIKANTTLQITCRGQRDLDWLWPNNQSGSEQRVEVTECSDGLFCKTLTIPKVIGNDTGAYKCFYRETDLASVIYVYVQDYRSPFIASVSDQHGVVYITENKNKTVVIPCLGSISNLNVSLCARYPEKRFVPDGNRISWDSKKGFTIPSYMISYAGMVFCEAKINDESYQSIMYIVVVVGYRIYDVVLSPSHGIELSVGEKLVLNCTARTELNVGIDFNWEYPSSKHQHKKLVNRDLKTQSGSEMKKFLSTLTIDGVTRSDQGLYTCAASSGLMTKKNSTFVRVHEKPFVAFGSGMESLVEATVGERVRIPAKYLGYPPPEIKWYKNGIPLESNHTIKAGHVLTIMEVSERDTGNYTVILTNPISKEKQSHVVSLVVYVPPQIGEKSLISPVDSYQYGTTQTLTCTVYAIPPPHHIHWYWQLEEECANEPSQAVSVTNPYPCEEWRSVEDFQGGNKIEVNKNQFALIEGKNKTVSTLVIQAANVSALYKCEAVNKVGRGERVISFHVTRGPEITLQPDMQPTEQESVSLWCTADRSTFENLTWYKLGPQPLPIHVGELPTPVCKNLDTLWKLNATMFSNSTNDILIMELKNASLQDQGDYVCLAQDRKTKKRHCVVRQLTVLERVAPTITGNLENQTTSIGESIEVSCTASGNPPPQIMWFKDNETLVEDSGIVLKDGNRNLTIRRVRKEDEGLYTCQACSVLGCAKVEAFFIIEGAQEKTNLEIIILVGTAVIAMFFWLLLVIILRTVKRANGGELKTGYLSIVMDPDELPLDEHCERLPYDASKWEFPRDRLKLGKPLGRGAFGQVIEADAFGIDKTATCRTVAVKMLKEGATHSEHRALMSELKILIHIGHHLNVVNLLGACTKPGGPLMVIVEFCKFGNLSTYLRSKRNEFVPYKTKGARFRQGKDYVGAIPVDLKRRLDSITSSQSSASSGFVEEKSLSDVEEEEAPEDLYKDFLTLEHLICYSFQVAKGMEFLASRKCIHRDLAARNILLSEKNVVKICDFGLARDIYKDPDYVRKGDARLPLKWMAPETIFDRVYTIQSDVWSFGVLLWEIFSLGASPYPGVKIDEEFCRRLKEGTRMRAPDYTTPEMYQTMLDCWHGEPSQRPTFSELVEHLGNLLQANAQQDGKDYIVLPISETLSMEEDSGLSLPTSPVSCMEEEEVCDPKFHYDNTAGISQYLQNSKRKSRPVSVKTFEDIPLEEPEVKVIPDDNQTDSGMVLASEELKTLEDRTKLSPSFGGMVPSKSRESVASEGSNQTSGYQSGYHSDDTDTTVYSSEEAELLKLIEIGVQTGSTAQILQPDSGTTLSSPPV
Method: NIH3T3 cells expressing the full length KDR receptor were grown in DMEM (Life Technologies, Inc., Grand Island, NY) supplemented with 10% newborn calf serum, low glucose, 25 mM /L sodium pyruvate, pyridoxine hydrochloride and 0.2 mg/ ml of G418 (Life Technologies Inc., Grand Island, NY). The cells were maintained in collagen I-coated T75 flasks (Becton Dickinson Labware, Bedford, MA) in a humidified 5% CO2 atmosphere at 37°C.
Fifteen thousand cells were plated into each well of a collagen I-coated 96-well plate in the DMEM growth medium. Six hours later, the cells were washed and the medium was replaced with DMEM without serum. After overnight culture to quiesce the cells, the medium was replaced by Dulbecco's phosphate-buffered saline (Life Technologies Inc., Grand Island, NY) with 0.1% bovine albumin (Sigma Chemical Co., St Louis, MO). After adding various concentrations (0-300 nM) of test compounds to the cells in 1% final concentration of DMSO, the cells were incubated at room temperature for 30 minutes. The cells were then treated with VEGF (30 ng / ml) for 10 minutes at room temperature. Following VEGF stimulation, the buffer was removed and the cells were lysed by addition of 150 µl of extraction buffer (50 mM Tris, pH 7.8, supplemented with 10% glycerol, 50 mM BGP, 2 mM EDTA, 10 mM NaF, 0.5 mM NaVO4, and 0.3% TX-100) at 4°C for 30 minutes.
To assess receptor phosphorylation, 100 microliters of each cell lysate was added to the wells of an ELISA plate precoated with 300 ng of antibody C20 (Santa Cruz Biotechnology, Inc., Santa Cruz , CA). Following a 60-minute incubation, the plate was washed and bound KDR was probed for phosphotyrosine using an anti-phosphotyrosine mAb clone 4G10 (Upstate Biotechnology, Lake Placid, NY). The plate was washed and wells were incubated with anti-mouse IgG/HRP conjugate (Amersham International plc, Buckinghamshire, England) for 60 minutes. Wells were washed and phosphotyrosine was quantitated by addtion of 100 µl per well of 3,3',5,5' tetramethylbenzidine (Kirkegaard and Perry, TMB Microwell 1 Component peroxidase substrate) solution. Color development was arrested by the addition of 100 µl 1% HCl based stop solution (Kirkegaard and Perry, TMB 1 Component Stop Solution).
Optical densities (OD) were determined spectrophotometrically at 450 nm in a 96-well plate reader (SpectraMax 250, Molecular Devices). Background (no VEGF added) OD values were subtracted from all ODs and percent inhibition was calculated according to the equation: % Inhibition =((OD(VEGF control) - OD(with test compound)) X 100)/(OD(VEGF control) - OD(no VEGF added)) [formula]
IC50s were determined with a least squares analysis program using compound concentration versus percent inhibition. Compounds that have IC50 < 20 nM in this assay include those of Examples 2, 6, 7, 11, 15 and 16. Compounds that have IC50 values between 20 nM and 50 nM include those of examples 1, 4, 5, 8, 10, 12, 13 and 14. Those that have measured IC50 values > 50 nM include those of examples 9 and 21.

[2] = molecular target: T2, cytosolic kinase domain of KDR kinase (Homo sapiens, UniProt P35968); experiment: KDR Assay (ELISA, phosphorylation of poly(Glu4;Tyr1)); format: biochemical; conditions: 3.3 µM ATP, 60 minutes at room temperature, 30 ng KDR kinase domain
T2 construct: The cytosolic kinase domain of KDR kinase was expressed as a 6His fusion protein in Sf9 insect cells; 6His; made in house; host or cells: Sf9 insect cells
T2 sequence (P35968 834-1162 limits assumed): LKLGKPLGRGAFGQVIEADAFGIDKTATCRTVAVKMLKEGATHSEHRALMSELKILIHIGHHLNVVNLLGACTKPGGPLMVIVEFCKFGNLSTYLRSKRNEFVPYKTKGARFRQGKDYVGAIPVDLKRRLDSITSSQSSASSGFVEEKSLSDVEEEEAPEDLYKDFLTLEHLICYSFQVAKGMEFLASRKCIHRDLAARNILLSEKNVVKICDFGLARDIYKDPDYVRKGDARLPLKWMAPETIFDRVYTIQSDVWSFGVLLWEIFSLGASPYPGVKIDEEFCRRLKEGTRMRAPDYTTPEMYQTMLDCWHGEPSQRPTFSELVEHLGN
Method: The cytosolic kinase domain of KDR kinase was expressed as a 6His fusion protein in Sf9 insect cells. The KDR kinase domain fusion protein was purified over a Ni^++ chelating column. Ninety-six well ELISA plates were coated with 5 µg poly(Glu4;Tyr1) (Sigma Chemical Co., St Louis, MO) in 100 µl HEPES buffer (20 mM HEPES, pH 7.5, 150 mM NaCl, 0.02% Thimerosal) at 4° overnight. Before use, the plate was washed with HEPES, NaCl buffer and the plates were blocked with 1% BSA, 0.1% Tween 20 in HEPES, NaCl buffer.
Test compounds were serially diluted in 100% DMSO from 4 mM to 0.12 µM in half-log dilutions. These dilutions were further diluted twenty fold in H2O to obtain compound solutions in 5% DMSO. Following loading of the assay plate with 85 µl of assay buffer (20 mM HEPES, pH 7.5, 100 mM KCl, 10 mM MgCl2, 3 mM MnCl2, 0.05% glycerol, 0.005% Triton X-100, 1 mM -mercaptoethanol, with or without 3.3 µM ATP), 5 µl of the diluted compounds were added to a final assay volume of 100 µl. Final concentrations were between 10 µM, and 0.3 nM in 0.25% DMSO. The assay was initiated by the addition of 10µl (30 ng) of KDR kinase domain.
The assay was incubated with test compound or vehicle alone with gentle agitation at room temperature for 60 minutes. The wells were washed and phosphotyrosines (PY) were probed with an anti-phosphotyrosine (PY), mAb clone 4G10 (Upstate Biotechnology, Lake Placid, NY). PY/anti-PY complexes were detected with an anti-mouse IgG/HRP conjugate (Amersham International plc, Buckinghamshire, England). Phosphotyrosine was quantitated by incubating with 100 µl 3, 3', 5, 5' tetramethylbenzidine solution (Kirkegaard and Perry, TMB Microwell 1 Component peroxidase substrate). Color development was arrested by the addition of 100 µl 1% HCl-based stop solution (Kirkegaard and Perry, TMB I Component Stop Solution).
Optical densities were determined spectrophotometrically at 450 nm in a 96-well plate reader, SpectraMax 250 (Molecular Devices). Background (no ATP in assay) OD values were subtracted from all ODs and the percent inhibition was calculated according to the equation: % Inhibition =((OD(vehicle control) - OD(with compound)) X 100)/(OD(vehicle control) - OD(no ATP added)) [formula]
The IC50 values were determined with a least squares analysis program using compound concentration versus percent inhibition. Compounds that have IC50 < 100 nM in this assay include those of Examples 1, 2, 4, 5, 6, 7, 10, 11, 12, 13, 14, 15, 16 and 23. Compounds that have IC50 values between 100 nM and 1,000 nM include those of examples 8, 9 and 22. Those that have measured IC50 values > 1,000 nM include those of examples 3, 17, 18 and 21.

IC50 [1] [nM]	IC50 [2] [nM]	Compound
< 20		NC(=O)c1cc(COc2nnc(Nc3ccc(Cl)cc3)c3ccccc23)ccn1 [Example 16, 4-[4-(4-Chlorophenylamino)phthalazin-1-yloxymethyl]pyridin-2-yl carboxylic acid amide dimethanesulfonate]
20 to 50	< 100	c1ccc2c(Nc3ccc4c(c3)CCC4)nnc(Cc3ccncc3)c2c1 [Example 10, 1-(indan-5-ylamino)-4-(4-pyridylmethyl)phthalazine]
< 20	< 100	NC(=O)c1cc(COc2nnc(Nc3ccc(Cl)cc3)c3ccccc23)ccn1 [Example 15, 4-[4-(4-Chlorophenylamino)phthalazin-1-yloxymethyl]pyridin-2-yl carboxylic acid amide dihydrochloride]
	> 1000	Clc1ccc(Nc2nnc(OCc3cccnc3)c3ccccc23)cc1 [Example 3, 1-(4-chlorophenylamino)-4-(3-pyridylmethoxy)phthalazine]
	> 1000	CC(C)c1ccc(Nc2nnc(Sc3nnc(-c4ccncc4)[nH]3)c3ccccc23)cc1 [Example 18, 1-(4-isopropylphenylamino)-4-[5-(4-pyridyl)-1H-1,2,4-triazolyl-3-ylthio]phthalazine]
	< 100	c1ccc2c(Nc3ccc4ncsc4c3)nnc(Cc3ccncc3)c2c1 [Example 23, 1-(benzothiazol-6-ylamino)-4-(4-pyridylmethyl)phthalazine]
> 50	100 to 1000	c1ccc2c(Nc3ccc(Oc4ccncc4)cc3)nnc(Cc3ccncc3)c2c1 [Example 9, 1-[4-(4-pyridyloxy)phenylamino]-4-(4-pyridylmethyl)phthalazine]
< 20	< 100	NC(=O)c1cc(Cc2nnc(Nc3cccc(Br)c3)c3ccccc23)ccn1 [Example 7, 4-[4-(3-Bromophenylamino)phthalazin-1-ylmethyl]-pyridin-2-yl carboxylic acid amide]
< 20	< 100	CNC(=O)c1cc(Cc2nnc(Nc3cccc(Br)c3)c3ccccc23)ccn1 [Example 6, 4-[4-(3-Bromophenylamino)phthalazin-1-ylmethyl]-pyridin-2-yl carboxylic acid methylamide]
20 to 50		NC(=O)c1cc(Cc2nnc(Nc3ccc(Cl)cc3)c3ccccc23)ccn1 [Example 14, 4-[4-(4-Chlorophenylamino)phthalazin-1-ylmethyl]pyridin-2-yl carboxylic acid amide dimethanesulfonate]
< 20		CNC(=O)c1cc(Cc2nnc(Nc3ccc(Cl)cc3)c3ccccc23)ccn1 [Example 11, 4-[4-(4-Chlorophenylamino)phthalazin-1-ylmethyl]pyridin-2-yl carboxylic acid methylamide dihydrochloride]
20 to 50	100 to 1000	Clc1ccc(Nc2nnc(Cc3ccnc(-c4ccccc4)c3)c3ccccc23)cc1 [Example 8, 1-(4-chlorophenylamino)-4-[(2-phenyl-4-pyridyl)methyl]phthalazine]
20 to 50	< 100	CNC(=O)c1cc(COc2nnc(Nc3ccc(Cl)cc3)c3ccccc23)ccn1 [Example 4, 4-[4-(4-Chlorophenylamino)phthalazin-1-yloxymethyl]pyridin-2-yl carboxylic acid methylamide]
20 to 50		CNC(=O)c1cc(Cc2nnc(Nc3ccc(Cl)cc3)c3ccccc23)ccn1 [Example 12, 4-[4-(4-Chlorophenylamino)phthalazin-1-ylmethyl]pyridin-2-yl carboxylic acid methylamide dimethanesulfonate]
	100 to 1000	N#CC(c1ccncc1)c1nnc(Nc2ccc3c(c2)CCC3)c2ccccc12 (centres unmarked) [Example 22, 1-(indan-5-ylamino)-4-(4-pyridylcyanomethyl)phthalazine]
	> 1000	Clc1ccc(Nc2nnc(Sc3nnc(-c4ccncc4)[nH]3)c3ccccc23)cc1 [Example 17, 1-(4-chlorophenylamino)-4-[5-(4-pyridyl)-1H-1,2,4-triazolyl-3-ylthio]phthalazine]
20 to 50		NC(=O)c1cc(COc2nnc(Nc3ccc(Cl)cc3)c3ccccc23)ccn1 [Example 5, 4-[4-(4-Chlorophenylamino)phthalazin-1-yloxymethyl]pyridin-2-yl carboxylic acid amide]
20 to 50	< 100	NC(=O)c1cc(Cc2nnc(Nc3ccc(Cl)cc3)c3ccccc23)ccn1 [Example 13, 4-[4-(4-Chlorophenylamino)phthalazin-1-ylmethyl]pyridin2-yl carboxylic acid amide dihydrochloride]
